Laboratory results reported in ChEMBL document CHEMBL1201862, “PubChem BioAssay data set” (2004).
Calls of active or inactive are those of the source.

Experiments:
[1] = cytotoxicity toward DRD oncogenic fibroblasts, dose response, cell-based, non-viral oncogenic, luminescence (AID 1934); type: functional; details: Homo sapiens
[2] = system: BJ; assay: cytotoxicity toward BJ-TERT fibroblasts, dose response, cell-based, RAS-independent, luminescence (AID 1933); type: functional; details: Homo sapiens
[3] = biological target: Cytochrome P450 2C19 (Homo sapiens, UniProt P33261); assay: Cytochrome panel assay with activity outcomes. Panel member name: p450-cyp2c19 Compounds with AC50 equal or less than 10 uM are considered active; type: functional; details: read-out: AC50
Cytochrome P450 2C19, sequence (P33261 whole entry): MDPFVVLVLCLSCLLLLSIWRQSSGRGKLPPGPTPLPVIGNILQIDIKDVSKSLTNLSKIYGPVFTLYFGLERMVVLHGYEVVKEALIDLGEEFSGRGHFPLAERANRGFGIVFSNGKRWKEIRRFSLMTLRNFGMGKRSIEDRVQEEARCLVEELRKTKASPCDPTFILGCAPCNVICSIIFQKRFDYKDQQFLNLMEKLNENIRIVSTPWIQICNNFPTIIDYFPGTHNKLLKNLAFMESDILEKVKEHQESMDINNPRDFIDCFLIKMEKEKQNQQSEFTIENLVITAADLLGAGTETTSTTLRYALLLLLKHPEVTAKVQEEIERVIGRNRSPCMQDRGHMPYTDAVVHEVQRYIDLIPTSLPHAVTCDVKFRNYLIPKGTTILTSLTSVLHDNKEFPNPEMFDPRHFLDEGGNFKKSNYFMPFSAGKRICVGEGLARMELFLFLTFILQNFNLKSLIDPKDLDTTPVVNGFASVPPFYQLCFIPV

[4] = system: BJ; assay: cytotoxicity toward BJ-TERT-LT-ST fibroblasts, dose response, cell-based, RAS-independent, luminescence (AID 1935); type: functional; details: Homo sapiens;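 note: BJ fibroblasts immortalized with TERT plus LT and ST oncogenes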
[5] = system: BJ; assay: cells; type: functional, cell-based, Homo sapiens; details: Homo sapiens, BJ
[6] = Luminescence Cell-Based Dose Response HTS to Identify Activators of Luciferase Translation or Activity in H4 […] Cells. [Related pubchem assays: 1829 (Project Summary), 1814 (Primary HTS)]; type: functional
[7] = biological target: T1, Sentrin-specific protease 7 (Homo sapiens, UniProt Q9BQF6); type: functional;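 note: Luminescence-based dose-response confirmation of ultra-high-throughput screening hits, measuring inhibition of SENP7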
T1 sequence (Q9BQF6 whole entry): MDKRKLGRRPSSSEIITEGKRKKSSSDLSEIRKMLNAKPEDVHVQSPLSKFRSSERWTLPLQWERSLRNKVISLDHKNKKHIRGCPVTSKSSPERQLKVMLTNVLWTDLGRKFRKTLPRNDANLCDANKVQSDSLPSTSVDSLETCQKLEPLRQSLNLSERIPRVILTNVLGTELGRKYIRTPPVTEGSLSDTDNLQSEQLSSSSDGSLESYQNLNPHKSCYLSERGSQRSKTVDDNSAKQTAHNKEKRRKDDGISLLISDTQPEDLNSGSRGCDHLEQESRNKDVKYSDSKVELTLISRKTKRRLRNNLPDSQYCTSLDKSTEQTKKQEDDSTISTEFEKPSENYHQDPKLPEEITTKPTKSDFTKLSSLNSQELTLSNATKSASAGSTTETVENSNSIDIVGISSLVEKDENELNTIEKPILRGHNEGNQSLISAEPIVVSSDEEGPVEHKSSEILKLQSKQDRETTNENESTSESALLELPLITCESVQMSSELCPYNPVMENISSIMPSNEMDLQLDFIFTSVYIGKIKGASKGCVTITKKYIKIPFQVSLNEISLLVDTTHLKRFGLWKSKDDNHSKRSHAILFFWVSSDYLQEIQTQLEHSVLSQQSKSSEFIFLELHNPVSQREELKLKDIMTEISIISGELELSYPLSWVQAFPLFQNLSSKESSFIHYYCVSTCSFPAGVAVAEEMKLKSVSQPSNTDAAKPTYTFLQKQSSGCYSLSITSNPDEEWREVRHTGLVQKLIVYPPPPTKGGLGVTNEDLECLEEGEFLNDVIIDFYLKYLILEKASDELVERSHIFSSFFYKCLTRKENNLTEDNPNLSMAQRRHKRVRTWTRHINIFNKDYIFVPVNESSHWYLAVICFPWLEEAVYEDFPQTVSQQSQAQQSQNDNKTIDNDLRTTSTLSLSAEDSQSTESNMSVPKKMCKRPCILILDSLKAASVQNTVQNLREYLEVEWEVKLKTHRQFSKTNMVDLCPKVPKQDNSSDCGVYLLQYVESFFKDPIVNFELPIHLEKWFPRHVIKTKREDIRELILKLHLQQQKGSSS

[8] = system: H4; assay: Luminescence Cell-Based Dose Response HTS to Identify Activators of 5'UTR Stem-Loop Driven Prion Protein mRNA Translation in H4 Neuroglioblastoma Cells. [Related pubchem assays: 1829 (Project Summary), 1814 (Primary HTS)]; type: functional; details: Homo sapiens
[9] = Luminescence Cell-Based Dose Confirmation HTS to Identify Activators of 5'UTR Stem-Loop Driven Alpha-Synuclein mRNA Translation in H4 Neuroglioblastoma Cells. [Related pubchem assays: 1829 (Project Summary), 1814 (Primary HTS)]; type: functional
[10] = biological target: T2, Sentrin-specific protease 6 (Homo sapiens, UniProt Q9GZR1); type: functional;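 note: Luminescence-based dose-response confirmatory assay of SENP6 inhibition, following up an ultra-high-throughput screen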
T2 sequence (Q9GZR1 whole entry): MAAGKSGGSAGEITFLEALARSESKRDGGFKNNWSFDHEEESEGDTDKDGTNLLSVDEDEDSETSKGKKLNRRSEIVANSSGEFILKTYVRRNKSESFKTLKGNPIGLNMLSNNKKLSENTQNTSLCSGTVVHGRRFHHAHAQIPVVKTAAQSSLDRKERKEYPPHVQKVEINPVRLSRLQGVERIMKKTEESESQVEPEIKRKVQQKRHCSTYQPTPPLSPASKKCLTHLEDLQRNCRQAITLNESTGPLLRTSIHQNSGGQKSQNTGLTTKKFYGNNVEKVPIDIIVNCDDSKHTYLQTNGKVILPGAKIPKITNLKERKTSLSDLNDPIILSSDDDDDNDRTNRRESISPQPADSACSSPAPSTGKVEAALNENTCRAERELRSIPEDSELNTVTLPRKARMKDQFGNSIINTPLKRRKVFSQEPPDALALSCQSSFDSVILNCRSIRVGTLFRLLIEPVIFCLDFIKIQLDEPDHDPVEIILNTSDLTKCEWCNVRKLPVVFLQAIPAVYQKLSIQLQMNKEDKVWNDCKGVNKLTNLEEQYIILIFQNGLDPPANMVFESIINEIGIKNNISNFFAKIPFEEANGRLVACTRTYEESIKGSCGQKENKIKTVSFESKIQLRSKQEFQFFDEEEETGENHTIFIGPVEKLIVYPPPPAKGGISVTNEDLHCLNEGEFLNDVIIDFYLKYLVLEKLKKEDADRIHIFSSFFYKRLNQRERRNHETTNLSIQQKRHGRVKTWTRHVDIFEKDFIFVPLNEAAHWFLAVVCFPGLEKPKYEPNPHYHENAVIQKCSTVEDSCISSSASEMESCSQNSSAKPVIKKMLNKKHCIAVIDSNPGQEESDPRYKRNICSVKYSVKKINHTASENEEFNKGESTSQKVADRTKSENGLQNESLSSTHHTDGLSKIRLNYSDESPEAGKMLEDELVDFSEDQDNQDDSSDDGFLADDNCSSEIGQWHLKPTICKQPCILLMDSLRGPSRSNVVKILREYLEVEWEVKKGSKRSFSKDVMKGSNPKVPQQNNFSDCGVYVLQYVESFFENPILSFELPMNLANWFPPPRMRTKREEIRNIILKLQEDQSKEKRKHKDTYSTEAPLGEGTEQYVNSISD

[11] = biological target: T3, Sentrin-specific protease 8 (Homo sapiens, UniProt Q96LD8); type: functional;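 note: luminescence read-out of SENP8 inhibition, dose-response confirmation following an ultra-high-throughput screen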
T3 sequence (Q96LD8 whole entry): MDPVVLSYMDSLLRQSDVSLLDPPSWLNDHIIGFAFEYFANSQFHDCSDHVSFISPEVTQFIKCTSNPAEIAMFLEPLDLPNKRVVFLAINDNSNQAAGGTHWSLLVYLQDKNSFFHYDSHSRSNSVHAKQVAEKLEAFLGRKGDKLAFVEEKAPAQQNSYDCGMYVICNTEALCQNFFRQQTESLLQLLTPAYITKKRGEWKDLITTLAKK

[12] = biological target: T4, Caspase-3 (Homo sapiens, UniProt P42574); type: functional;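 note: Dose-response selectivity test against caspase-3 for candidate inhibitors of sentrin-specific proteases (SENPs)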
T4 sequence (P42574 whole entry): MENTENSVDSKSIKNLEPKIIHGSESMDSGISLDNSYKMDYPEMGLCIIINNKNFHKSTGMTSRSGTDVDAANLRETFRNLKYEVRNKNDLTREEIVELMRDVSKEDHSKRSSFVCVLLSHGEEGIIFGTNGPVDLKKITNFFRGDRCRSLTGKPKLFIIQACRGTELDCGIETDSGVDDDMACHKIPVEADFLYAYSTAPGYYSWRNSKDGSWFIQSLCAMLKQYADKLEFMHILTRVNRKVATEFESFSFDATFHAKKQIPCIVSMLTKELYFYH

[13] = biological target: T5, Polyadenylate-binding protein 1 (Homo sapiens, UniProt P11940); assay: PABP1 MLLE–PAM2 interaction inhibitors, dose response, miRNA deadenylation inhibitor project, biochemical, fluorescence polarization, Cy5-PAM2 peptide, secondary (AID 602260); type: functional; details: read-out: IC50_Mean
T5 sequence (P11940 whole entry): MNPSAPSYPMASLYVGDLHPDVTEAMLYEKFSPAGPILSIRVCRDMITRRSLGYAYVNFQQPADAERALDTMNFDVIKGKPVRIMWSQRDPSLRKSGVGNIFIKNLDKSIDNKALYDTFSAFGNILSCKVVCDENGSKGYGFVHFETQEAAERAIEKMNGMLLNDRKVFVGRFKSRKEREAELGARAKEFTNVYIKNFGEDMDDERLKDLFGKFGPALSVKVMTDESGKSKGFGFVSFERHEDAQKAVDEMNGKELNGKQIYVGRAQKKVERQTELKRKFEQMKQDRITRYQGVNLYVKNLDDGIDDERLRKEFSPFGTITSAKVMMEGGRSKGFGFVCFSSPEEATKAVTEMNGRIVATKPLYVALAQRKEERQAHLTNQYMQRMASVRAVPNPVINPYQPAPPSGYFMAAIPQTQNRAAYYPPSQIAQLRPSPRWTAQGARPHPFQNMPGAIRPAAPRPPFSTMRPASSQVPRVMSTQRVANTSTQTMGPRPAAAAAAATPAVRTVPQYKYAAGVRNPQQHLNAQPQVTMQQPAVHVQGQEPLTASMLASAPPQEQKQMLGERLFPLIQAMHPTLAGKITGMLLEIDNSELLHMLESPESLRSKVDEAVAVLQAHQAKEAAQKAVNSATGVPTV

[14] = biological target: T5, Polyadenylate-binding protein 1; assay: PABP1 MLLE–PAM2 binding inhibitor potency, dose response, biochemical, fluorescence polarization, FITC-PAM2 peptide (AID 602259); type: functional; details: read-out: IC50_Mean
[15] = biological target: T6, Protein skinhead-1 (Caenorhabditis elegans, UniProt P34707); type: functional
T6 sequence (P34707 whole entry): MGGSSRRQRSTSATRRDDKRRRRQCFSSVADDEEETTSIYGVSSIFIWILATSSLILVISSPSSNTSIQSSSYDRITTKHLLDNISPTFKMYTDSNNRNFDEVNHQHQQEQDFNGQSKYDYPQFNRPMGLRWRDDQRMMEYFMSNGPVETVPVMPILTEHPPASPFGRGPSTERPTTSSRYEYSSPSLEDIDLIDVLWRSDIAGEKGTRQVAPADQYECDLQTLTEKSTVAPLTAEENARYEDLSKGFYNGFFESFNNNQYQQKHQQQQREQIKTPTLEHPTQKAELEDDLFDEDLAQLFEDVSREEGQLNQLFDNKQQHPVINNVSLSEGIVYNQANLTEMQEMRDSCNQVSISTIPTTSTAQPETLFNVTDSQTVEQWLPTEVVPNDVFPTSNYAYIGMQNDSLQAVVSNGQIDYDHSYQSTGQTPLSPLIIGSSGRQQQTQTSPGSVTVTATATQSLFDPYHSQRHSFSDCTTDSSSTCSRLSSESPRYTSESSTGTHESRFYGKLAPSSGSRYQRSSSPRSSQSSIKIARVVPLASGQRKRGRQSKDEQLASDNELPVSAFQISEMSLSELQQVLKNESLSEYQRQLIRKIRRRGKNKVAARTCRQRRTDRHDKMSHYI

[16] = NIH-3T3 fibroblast cytotoxicity, dose response, cytotoxicity control, cell-based, fluorescence, Alamar Blue, secondary assay (AID 2327); type: functional;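 note: NIH-3T3 mouse fibroblasts cultured with fluconazole at 8 µg/mL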
[17] = biological target: Cytochrome P450 2D6 (Homo sapiens, UniProt P10635);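 note: CYP2D6 member of a cytochrome P450 panel assay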
Cytochrome P450 2D6, sequence (P10635 whole entry): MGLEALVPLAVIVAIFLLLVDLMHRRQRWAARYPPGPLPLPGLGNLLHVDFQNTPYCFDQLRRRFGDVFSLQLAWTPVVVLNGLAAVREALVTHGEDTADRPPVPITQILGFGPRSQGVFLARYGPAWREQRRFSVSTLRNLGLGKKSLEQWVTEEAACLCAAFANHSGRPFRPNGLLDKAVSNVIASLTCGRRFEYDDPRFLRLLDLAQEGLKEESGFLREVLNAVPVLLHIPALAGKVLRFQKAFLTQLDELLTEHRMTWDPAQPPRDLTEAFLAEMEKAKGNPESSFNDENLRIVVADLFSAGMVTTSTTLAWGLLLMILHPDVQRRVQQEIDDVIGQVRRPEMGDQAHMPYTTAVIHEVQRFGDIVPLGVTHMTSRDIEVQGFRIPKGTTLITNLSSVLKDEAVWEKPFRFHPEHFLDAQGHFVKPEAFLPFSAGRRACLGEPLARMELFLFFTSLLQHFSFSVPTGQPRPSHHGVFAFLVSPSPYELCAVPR

[18] = biological target: Cytochrome P450 3A4 (Homo sapiens, UniProt P08684);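 note: CYP3A4 tested as one member of a cytochrome P450 panel screen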
Cytochrome P450 3A4, sequence (P08684 whole entry): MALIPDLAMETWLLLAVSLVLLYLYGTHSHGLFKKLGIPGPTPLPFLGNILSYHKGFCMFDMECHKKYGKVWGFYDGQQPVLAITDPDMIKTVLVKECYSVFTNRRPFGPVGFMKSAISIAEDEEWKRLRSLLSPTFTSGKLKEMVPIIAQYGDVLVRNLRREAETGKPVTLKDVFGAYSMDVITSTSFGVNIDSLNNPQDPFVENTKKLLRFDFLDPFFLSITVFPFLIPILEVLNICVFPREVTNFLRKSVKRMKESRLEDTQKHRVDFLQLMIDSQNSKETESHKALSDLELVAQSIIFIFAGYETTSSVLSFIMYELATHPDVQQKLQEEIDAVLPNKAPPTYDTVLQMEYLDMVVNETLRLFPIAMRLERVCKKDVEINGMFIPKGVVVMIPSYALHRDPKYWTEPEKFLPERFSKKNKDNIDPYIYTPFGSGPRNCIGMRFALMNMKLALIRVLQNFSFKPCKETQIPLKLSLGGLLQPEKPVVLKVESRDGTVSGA

[19] = system: Streptococcus sp. 'group A'; assay: growth inhibition of control SK(-) GAS strain, dose response, counter-screen for streptokinase expression inhibitor project, luminescence, kanamycin, BacTiterGlo, confirmation (AID 1900); type: functional, organism-based
[20] = system: Streptococcus; assay: Group A Streptococcus viability loss, dose response, counter-screen for streptokinase expression inhibitor project, luminescence, BacTiterGlo (AID 1915); type: functional, organism-based;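 note: potency for reduction of bacterial viability or growth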
[21] = biological target: T7, Streptokinase A (Streptococcus pyogenes serotype M1, UniProt P10520); assay: S. pyogenes streptokinase expression inhibitors, potency, dose response, plasminogen activation absorbance, OD405 (AID 1914); type: functional, Streptococcus pyogenes M1 GAS;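 note: secreted streptokinase activity via plasminogen activation per viability signal from cell pellet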
T7 sequence (P10520 whole entry): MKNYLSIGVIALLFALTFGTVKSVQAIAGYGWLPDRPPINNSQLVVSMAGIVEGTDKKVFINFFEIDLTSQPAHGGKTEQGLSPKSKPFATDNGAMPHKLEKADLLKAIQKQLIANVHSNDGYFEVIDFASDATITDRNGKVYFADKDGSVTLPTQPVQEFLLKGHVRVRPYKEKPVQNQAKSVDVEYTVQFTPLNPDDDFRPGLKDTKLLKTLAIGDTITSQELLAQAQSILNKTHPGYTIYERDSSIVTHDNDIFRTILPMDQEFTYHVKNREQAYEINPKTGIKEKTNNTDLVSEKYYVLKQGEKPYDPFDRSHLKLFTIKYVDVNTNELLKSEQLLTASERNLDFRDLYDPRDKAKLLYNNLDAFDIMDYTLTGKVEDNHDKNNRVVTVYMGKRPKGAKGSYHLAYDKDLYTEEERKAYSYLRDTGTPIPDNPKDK

Row | Compound | IC50 [7] | IC50 [10] | IC50 [11] | IC50 [12] | IC50 [13] | IC50 [14] | other results
1 | COc1ccc(-c2nc(-c3cccc(C)c3)nc(N3CCN(C)CC3)c2C#N)cc1 |  |  |  |  |  |  | EC50 [1]: 14.8 µM (inconclusive); EC50 [2]: 16.5 µM (inconclusive); AC50 [3]: 20 µM (inconclusive); EC50 [4]: > 150 µM (not active); EC50 [5]: 23.3 µM (active)
2 | CCSc1nsc(NC(=O)Nc2ccccc2F)n1 | 5.95 µM (active) | > 100 µM (inactive) | 6.84 µM (active) | 29 µM (active) |  |  | EC50 [6]: 20.4 µM (active); EC50 [8]: 16.1 µM (inconclusive); EC50 [9]: 0.283 µM (active)
3 | Cc1nc(NC(=S)NC(=O)c2ccccc2)sc1C(=O)N(C)C |  |  |  |  | > 66 µM (inactive) | > 66 µM (inactive) | 
4 | CCN(CC)S(=O)(=O)c1ccc2c(c1)nc(SCn1nnc3ccccc3c1=O)n2CC |  |  |  |  | > 66 µM (inactive) | > 66 µM (inactive) | 
5 | CCCc1nc2ccc(Cl)cn2c1Cc1ccsc1 |  |  |  |  | 51.2 µM (inactive) | 59.3 µM (inactive) | 
6 | CCOC(=O)c1ccc(Nc2sc(C(=O)c3cccc([N+](=O)[O-])c3)c(N)c2C#N)cc1 |  |  |  |  |  |  | EC50 [1]: 136 µM (inconclusive); EC50 [2]: > 150 µM (not active); EC50 [4]: 97.4 µM (active); EC50 [5]: 92.4 µM (inconclusive)
7 | c1ccc2nc(-c3ccc(-n4ccnc4)cc3)ccc2c1 | 5.47 µM (active) | 10.8 µM (active) | 13.1 µM (active) | 8.83 µM (active) |  |  | IC50 [15]: 7.87 µM (active)
8 | O=CNc1ccc2c3c(cccc13)-c1ccccc1-2 |  |  |  |  | 33.1 µM (inactive) | 37.1 µM (inactive) | 
9 | O=C(Nc1nc(=O)c2ccccc2s1)c1ccccc1 | 6.3 µM (active) | 60.6 µM (active) | > 100 µM (inactive) | 4.38 µM (active) |  |  | EC50 [16]: 63.1 µM (active)
10 | O=C(NN=Cc1sc(=O)[n-]c1-[n+]1ccccc1)c1ccccc1O |  |  |  |  | > 66 µM (inactive) | 35.2 µM (inactive) | 
11 | N=C1/C(=C/c2cccs2)C(=O)N=C2SN=C(SCc3ccccc3)N12 | 27.7 µM (active) | 11.1 µM (active) | 32.6 µM (active) | 50.3 µM (active) |  |  | AC50 [17]: 25.1 µM (inconclusive); AC50 [18]: 14.1 µM (inconclusive); EC50 [19]: 3.65 µM (active); EC50 [20]: 30 µM (active); EC50 [21]: 5.78 µM (active)
